Values after ≈ are worked out from the molar mass of the structure shown.
target: Metabotropic glutamate receptor 5 (Homo sapiens, UniProt P41594); experiment: Antagonist activity at human mGluR5 expressed in CHO cells assessed as increase in intracellular calcium level by FLIPR; type: functional, cell-based; details: not given
Sequence (P41594 whole entry): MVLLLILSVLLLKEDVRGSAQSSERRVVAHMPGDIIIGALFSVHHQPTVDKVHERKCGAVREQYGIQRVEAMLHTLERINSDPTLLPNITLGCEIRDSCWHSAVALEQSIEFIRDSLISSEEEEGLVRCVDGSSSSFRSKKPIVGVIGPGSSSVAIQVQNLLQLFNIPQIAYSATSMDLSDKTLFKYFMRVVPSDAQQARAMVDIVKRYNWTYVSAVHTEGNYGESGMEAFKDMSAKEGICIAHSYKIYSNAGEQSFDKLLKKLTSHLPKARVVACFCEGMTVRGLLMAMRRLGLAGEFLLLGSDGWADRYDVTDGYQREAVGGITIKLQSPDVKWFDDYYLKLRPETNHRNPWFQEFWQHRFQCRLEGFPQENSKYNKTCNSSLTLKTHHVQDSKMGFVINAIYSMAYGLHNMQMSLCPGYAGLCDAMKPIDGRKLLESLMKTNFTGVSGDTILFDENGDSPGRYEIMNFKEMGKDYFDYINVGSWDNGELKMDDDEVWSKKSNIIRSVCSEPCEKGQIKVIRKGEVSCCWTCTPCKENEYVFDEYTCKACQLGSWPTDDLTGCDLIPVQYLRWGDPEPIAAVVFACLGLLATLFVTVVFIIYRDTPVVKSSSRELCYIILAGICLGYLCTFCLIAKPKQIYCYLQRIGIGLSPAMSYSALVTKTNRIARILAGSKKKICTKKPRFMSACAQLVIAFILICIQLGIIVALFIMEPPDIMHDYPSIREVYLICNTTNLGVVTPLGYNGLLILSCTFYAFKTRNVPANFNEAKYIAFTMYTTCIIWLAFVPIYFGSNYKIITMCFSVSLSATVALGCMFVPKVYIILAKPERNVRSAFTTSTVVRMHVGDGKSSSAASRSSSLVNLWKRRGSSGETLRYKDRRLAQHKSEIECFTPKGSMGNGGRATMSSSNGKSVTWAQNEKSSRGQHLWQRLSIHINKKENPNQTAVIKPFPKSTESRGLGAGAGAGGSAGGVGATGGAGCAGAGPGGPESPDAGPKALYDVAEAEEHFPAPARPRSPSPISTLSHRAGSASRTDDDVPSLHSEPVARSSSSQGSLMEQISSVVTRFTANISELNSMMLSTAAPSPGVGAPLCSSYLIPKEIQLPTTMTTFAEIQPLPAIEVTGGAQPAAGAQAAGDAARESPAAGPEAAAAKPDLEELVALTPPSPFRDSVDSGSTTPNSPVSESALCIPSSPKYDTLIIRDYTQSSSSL

SMILES | IC50 [nM]
Cc1cn2cc(C(F)(F)F)cc2c(C#Cc2ccc(C#N)cc2)n1 | > 15800
Cc1cn2cc(C(F)(F)F)cc2c(C#Cc2ccc(NS(C)(=O)=O)cc2)n1 | > 15800
Cc1cn2cc(C(=O)N3CCCC3)cc2c(C#Cc2ccsc2)n1 | 20
Cc1cn2cc(C(=O)N3CCC(F)(F)C3)cc2c(C#Cc2ccsc2)n1 | 126
Cc1cccc(C#Cc2nc(C)cn3cccc23)c1 | 0.398
Cc1cn2cc(C(=O)N3CCN(C)CC3)cc2c(C#Cc2cccc(C(F)(F)F)c2)n1 | 251
Cc1cn2cc(C(F)(F)F)cc2c(C#Cc2ccc(F)cc2F)n1 | > 15800
Cc1cn2cc(C(F)(F)F)cc2c(C#Cc2cccc(-c3ccoc3)c2)n1 | 10000
Cc1cn2cc(C(F)(F)F)cc2c(C#Cc2cccc(-c3ccsc3)c2)n1 | 5010
Cc1cn2cc(C(F)(F)F)cc2c(C#Cc2cccnc2)n1 | 501
Cc1cn2cc(C(F)(F)F)cc2c(C#Cc2cccc(C(=O)O)c2)n1 | > 12600
Cc1cn2cc(C(F)(F)F)cc2c(C#Cc2cccs2)n1 | 63.1
Cc1cc2c(C#Cc3ccccc3)nc(C)cn2c1 | 50.1
Cc1cn2cc(C(F)(F)F)cc2c(C#Cc2cccc(Br)c2)n1 | 25.1
Cc1cn2cccc2c(C#Cc2ccc(Br)cc2)n1 | > 12600
CCOC(=O)c1cc2c(C#Cc3ccc(C#N)cc3)nc(C)cn2c1 | > 15800
Cc1cn2cc(C#N)cc2c(C#Cc2cccc(F)c2)n1 | 0.794
Cc1cn2cc(C(=O)N3CCN(C)CC3)cc2c(C#Cc2ccsc2)n1 | 158

Further lines, results first:

IC50 [nM] | SMILES
200 | Cc1cn2cc(CN3CCNC(=O)C3)cc2c(C#Cc2ccccc2)n1
> 15800 | Cc1cn2cc(C(F)(F)F)cc2c(C#Cc2ccc(C(F)(F)F)cc2)n1
2000 | Cc1cc2c(C#Cc3cccnc3)nc(C)cn2c1
> 15800 | Cc1cc2c(C#Cc3ccc(C(F)(F)F)cc3)nc(C)cn2c1
501 | Cc1cn2cc(C(N)=O)cc2c(C#Cc2ccccc2F)n1
39.8 | Cc1cn2cc(C(=O)N3CCCC3C)cc2c(C#Cc2ccsc2)n1 (configuration not stated)
> 12600 | Cc1cn2cc(C(F)(F)F)cc2c(C#Cc2cccc(-c3c(C)noc3C)c2)n1
100 | Cc1cn2cc(C(=O)N3CCCCC3C)cc2c(C#Cc2ccsc2)n1 (configuration not stated)

system: not listed separately; experiment: Solubility at pH 7.4; type: physicochemical; details: buffer

solubility [µg/mL] | SMILES
70 (≈ 362 µM) | Cc1cccc(C#Cc2ccccc2)n1

Reference: ChEMBL document CHEMBL1143100, “Phenylethynyl-pyrrolo[1,2-a]pyrazine: a new potent and selective tool in the mGluR5 antagonists arena” (Bioorg Med Chem Lett, 2008)
